Columns and labels:
[1] = Cytotoxicity against human A549-ACE2 cells assessed as reduction in cell viability; format: toxicity, cell-based
[2] = Plasma protein binding in human; format: ADME, cell-free; conditions: read-out: PPB (converted)
[3] = MRT (0 to last) in dog at 2 mg/kg, iv; format: ADME, organism-based, Canis lupus familiaris; conditions: in vivo
[4] = Tlast in dog at 2 mg/kg, iv; format: ADME, organism-based, Canis lupus familiaris; conditions: in vivo
[5] = Clearance in dog at 2 mg/kg, iv; format: ADME, organism-based, Canis lupus familiaris; conditions: in vivo
[6] = Volume of distribution in dog at 2 mg/kg, iv; format: ADME, organism-based, Canis lupus familiaris; conditions: in vivo
SARS-CoV-2 = experiment: Antiviral activity against SARS CoV-2 infected in human HeLa-ACE2 assessed as reduction in viral replication incubated for 24 hrs; format: functional; conditions: Severe acute respiratory syndrome coronavirus 2, HeLa-ACE2
[7] = AUC (0 to last) in dog at 20 mg/kg, po; format: ADME, organism-based, Canis lupus familiaris; conditions: in vivo
[8] = Tlast in dog at 20 mg/kg, po; format: ADME, organism-based, Canis lupus familiaris; conditions: in vivo
[9] = Oral bioavailability in dog at 20 mg/kg; format: ADME, organism-based, Canis lupus familiaris; conditions: in vivo
[10] = MRT (0 to last) in dog at 20 mg/kg, po; format: ADME, organism-based, Canis lupus familiaris; conditions: in vivo
[11] = Cmax in dog at 20 mg/kg, po; format: ADME, organism-based, Canis lupus familiaris; conditions: in vivo
[12] = Cmax in dog at 2 mg/kg, iv; format: ADME, organism-based, Canis lupus familiaris; conditions: in vivo
[13] = Lipophilicity, logD of compound; format: physicochemical; conditions: octanol/water
[14] = Half life in dog at 2 mg/kg, iv; format: ADME, organism-based, Canis lupus familiaris; conditions: in vivo
[15] = AUC (0 to last) in dog at 2 mg/kg, iv; format: ADME, organism-based, Canis lupus familiaris; conditions: in vivo
[16] = Clearance in dog at 20 mg/kg, po; format: ADME, organism-based, Canis lupus familiaris; conditions: in vivo
[17] = Intrinsic clearance in mouse liver microsomes; format: ADME, Microsome; conditions: read-out: CLH
[18] = Half life in dog at 20 mg/kg, po; format: ADME, organism-based, Canis lupus familiaris; conditions: in vivo
[19] = molecular target: Replicase polyprotein 1ab (Severe acute respiratory syndrome coronavirus 2, UniProt P0DTD1); experiment: Inhibition of SARS-CoV-2 papain-like protease using Z-Arg-Leu-Arg-Gly-Gly-AMC as substrate incubated for 15 mins
[20] = Ratio of CC50 for cytotoxicity against human A549-ACE2 cells assessed as reduction in cell viability to EC90 for antiviral activity against SARS CoV-2 infected in human HeLa-ACE2 assessed as reduction in viral replication; format: toxicity, cell-based

SMILES | CC50 ([1]; a549-ace2) [µM] | EC90 (SARS-CoV-2) [µM] | CC50 ([1]; A549-ACE2 cells) [µM] | IC50 [19] [µM] | other results
COC(=O)/C=C/C(=O)NNC(=O)CCc1ccccc1C(=O)N[C@H](C)c1cccc2ccccc12 | 29.9 | 0.49 | – | – | fraction unbound [2]: 0.049; MRT last [3]: 6.84 min; Tlast [4]: 1 h; clearance [5]: 107 mL/min/kg; Vd [6]: 0.742 L/kg; AUC(0-t) [7]: 91 ng·h/mL; Tlast [8]: 8 h; bioavailability [9]: 2.9%; MRT last [10]: 97.2 min; Cmax [11]: 84 ng/mL; Cmax [12]: 2840 ng/mL; logD [13]: 3; half-life [14]: 6 min; AUC(0-t) [15]: 315 ng·h/mL; CL/F [16]: 3710 mL/min/kg; microsomal CLint [17]: 144 µL/min/mg; half-life [18]: 72.6 min
C[C@@H](NC(=O)c1ccccc1CCC(=O)NNC(=O)CC#N)c1cccc2ccccc12 | – | > 9.6 | > 99 | 9.5 | –
C[C@@H](NC(=O)c1ccccc1CCC(=O)NNC(=O)/C=C/C(=O)OCc1nccs1)c1cccc2ccccc12 | 16 | 9.23 | – | 0.34 | –
COC(=O)/C=C\C(=O)NNC(=O)CCc1ccccc1C(=O)N[C@H](C)c1cccc2ccccc12 | 34.6 | 0.71 | – | – | –
C[C@@H](NC(=O)c1ccccc1CCC(=O)NNC(=O)/C=C/C(=O)OCC1CCCC1)c1cccc2ccccc12 | 69.5 | 0.31 | – | 1.62 | –
COC(=O)/C=C/C(=O)NNC(=O)CCc1ccccc1C(=O)N[C@H](C)c1cccc(-c2cn[nH]c2)c1 | – | 3.58 | > 99 | 0.21 | –
C[C@@H](NC(=O)c1ccccc1CCC(=O)NNC(=O)/C=C/C(=O)OCCC(F)(F)F)c1cccc2ccccc12 | 61.9 | 1.26 | – | 0.25 | –
C[C@@H](NC(=O)c1ccccc1CCC(=O)NNC(=O)/C=C/C(=O)OC1CCCCC1)c1cccc2ccccc12 | – | 0.41 | > 99 | 0.96 | –
CCOC(=O)/C=C/C(=O)NNC(=O)CCc1ccccc1C(=O)N[C@H](C)c1cccc2ccccc12 | 44.7 | 0.31 | – | 0.19 | –
C[C@@H](NC(=O)c1ccccc1CCC(=O)NNC(=O)/C=C/C(=O)N(C)C)c1cccc2ccccc12 | – | > 9.6 | > 99 | 18.5 | –
C=C(CC(=O)NNC(=O)CCc1ccccc1C(=O)N[C@H](C)c1cccc2ccccc12)C(=O)OC | 6.1 | 8.3 | – | 17.9 | –
COC(=O)/C=C/C(=O)NNC(=O)CCc1ccccc1C(=O)N[C@H](C)c1cccc(C2=CCOCC2)c1 | 48.4 | 1.24 | – | 0.29 | –
COC(=O)/C=C/CNC(=O)CCc1ccccc1C(=O)N[C@H](C)c1cccc2ccccc12 | 87.9 | > 9.6 | – | 26.2 | –
C[C@@H](NC(=O)c1ccccc1CCC(=O)NNC(=O)C(F)Cl)c1cccc2ccccc12 (stereo not given in full) | – | > 9.6 | > 99 | 15.8 | –
C[C@@H](NC(=O)c1ccccc1CCC(=O)NNC(=O)/C=C/C(=O)OCc1ncccn1)c1cccc2ccccc12 | 30.1 | 3.03 | – | 0.35 | –
CC(=O)C(=O)NNC(=O)CCc1ccccc1C(=O)N[C@H](C)c1cccc2ccccc12 | – | > 9.6 | > 99 | 37.3 | –
CCCCOC(=O)/C=C/C(=O)NNC(=O)CCc1ccccc1C(=O)N[C@H](C)c1cccc2ccccc12 | – | 0.18 | > 99 | 0.24 | –

SMILES | CC50 ([1]; a549-ace2) [µM] | EC90 (SARS-CoV-2) [µM] | CC50 ([1]; A549-ACE2 cells) [µM] | IC50 [19] [µM] | other results
CC#CC(=O)NNC(=O)CCc1ccccc1C(=O)N[C@H](C)c1cccc2ccccc12 | 68.9 | > 9.6 | – | 11.3 | –
C[C@@H](NC(=O)c1ccccc1CCC(=O)NNC(=O)/C=C/C(=O)OC(C)(C)C)c1cccc2ccccc12 | 64 | 1.75 | – | 0.24 | –
C[C@@H](NC(=O)c1ccccc1CCC(=O)NNC(=O)/C=C/C(=O)OCc1ccccc1)c1cccc2ccccc12 | 98.9 | 0.78 | – | 0.52 | –
CC(=O)/C=C/C(=O)NNC(=O)CCc1ccccc1C(=O)N[C@H](C)c1cccc2ccccc12 | – | 12.9 | > 99 | 27.2 | –
C[C@@H](NC(=O)c1ccccc1CCC(=O)NNC(=O)/C=C/C(=O)O)c1cccc2ccccc12 | – | > 9.6 | > 99 | 2.6 | –
CNC(=O)/C=C/C(=O)NNC(=O)CCc1ccccc1C(=O)N[C@H](C)c1cccc2ccccc12 | – | > 9.6 | > 99 | 16.2 | –
C[C@@H](NC(=O)c1ccccc1CCC(=O)NNC(=O)/C=C/C#N)c1cccc2ccccc12 | 13.1 | 15.2 | – | 1.9 | –
COc1ccc(COC(=O)/C=C/C(=O)NNC(=O)CCc2ccccc2C(=O)N[C@H](C)c2cccc3ccccc23)cc1OC | – | 0.26 | > 99 | 1.01 | –
C[C@@H](NC(=O)c1ccccc1CCC(=O)NNC(=O)COC(F)(F)F)c1cccc2ccccc12 | – | > 9.6 | > 99 | 52.9 | –
C[C@@H](NC(=O)c1ccccc1CCC(=O)NNC(=O)/C=C/C(=O)OC1CCC1)c1cccc2ccccc12 | 64.8 | 0.27 | – | 0.33 | –
CCOC(=O)/C=C/C(=O)NNC(=O)CCc1ccccc1C(=O)N[C@H](C)c1cccc(-c2cccs2)c1 | – | 0.21 | – | 0.14 | fraction unbound [2]: 0.014; MRT last [3]: 7.02 min; Tlast [4]: 1 h; clearance [5]: 95.1 mL/min/kg; Vd [6]: 0.681 L/kg; AUC(0-t) [7]: 62 ng·h/mL; Tlast [8]: 8 h; bioavailability [9]: 1.9%; MRT last [10]: 176 min; Cmax [11]: 20 ng/mL; Cmax [12]: 3220 ng/mL; selectivity ratio [20]: 56.7; half-life [14]: 6.48 min; AUC(0-t) [15]: 362 ng·h/mL; CL/F [16]: 5090 mL/min/kg; microsomal CLint [17]: 618 µL/min/mg; half-life [18]: 157 min
COC(=O)/C=C/C(=O)NNC(=O)CCc1ccccc1C(=O)N[C@H](C)c1cccc(-c2cc3ccccc3o2)c1 | 59 | 0.12 | – | 0.25 | –
CC(C)OC(=O)/C=C/C(=O)NNC(=O)CCc1ccccc1C(=O)N[C@H](C)c1cccc2ccccc12 | 59.3 | 0.56 | – | 0.24 | –
COC(=O)/C=C/C(=O)NNC(=O)CCc1ccccc1C(=O)N[C@H](C)c1cccc(-c2cncnc2)c1 | – | 9.55 | > 99 | 0.35 | –
C[C@@H](NC(=O)c1ccccc1CCC(=O)NNC(=O)/C=C/C(=O)OCc1ccc2ccccc2n1)c1cccc2ccccc12 | 13.6 | 1.14 | – | 0.45 | –
C[C@@H](NC(=O)c1ccccc1CCC(=O)NNC(=O)/C=C/c1ncco1)c1cccc2ccccc12 | – | > 9.6 | > 99 | 44.5 | –

From ChEMBL document CHEMBL6120983, “Synthesis and Structure-Activity Relationship of Covalent Inhibitors of SARS-CoV-2 Papain-Like Protease with Antiviral Potency” (Bioorg Med Chem Lett, 2025)
